We go through 22 molecules from patent US9133183B2, “Imidazolidinones and analogs exhibiting anti-cancer and anti-proliferative activities” (Deciphera Pharmaceuticals, LLC, priority 2013, dated 2015).

Type in all cases: biochemical
The target in assay [1] is unphosphorylated c-FMS kinase (uFMS, Seq. ID no. 1) (Homo sapiens (Human), UniProt P07333). As to the kind of experiment: uFMS kinase assay (ADP production coupled to pyruvate kinase/lactate dehydrogenase). The essentials:
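Unphosphorylated FMS (10 nM) with polyE4Y 1 mg/mL and 500 μM ATP in 90 mM Tris pH 7.5, 10 mM MgCl2, 0.2% octyl-glucoside, 1% DMSO. ADP formation was coupled via pyruvate kinase/LDH to NADH oxidation, followed at A340 for 4 h at 30° C.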

The target in assay [2] is unphosphorylated c-KIT kinase (uKIT, Seq. ID no. 2) (Homo sapiens (Human), UniProt P10721). In words: uKit kinase assay (coupled pyruvate kinase/lactate dehydrogenase). The note with it: enzymatic assay, ATP 2000 μM. The essentials:
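Unphosphorylated KIT (12 nM, N-terminal GST fusion) was run with 1 mg/mL polyE4Y, 2000 μM ATP and 10 mM MgCl2 in Tris buffer (pH 7.5, 0.2% octyl-glucoside, 1% DMSO). ADP was coupled via PK/LDH, with NADH loss tracked at A340 for 4 h at 30 °C. Rates at 3–4 h gave % inhibition and IC50.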

A further assay has as its target cMET kinase (Homo sapiens (Human), UniProt P08581). In words: cMET kinase inhibition (Table 4).
The next assay concerns the target KDR kinase (Homo sapiens (Human), UniProt P35968). In words: KDR kinase inhibition (Table 4).
Where [3] appears, read: enzymatic assay, ATP 500 μM, read-out: uFMS.

Each structure is given as a SMILES string. pIC50: −log10 of the molar value. Where two headings read alike, the source gives them in different places. Some results are limits rather than exact numbers.

Sequence of unphosphorylated c-KIT kinase (uKIT, Seq. ID no. 2) (P10721 other isoform, or with tags, fused parts or gaps): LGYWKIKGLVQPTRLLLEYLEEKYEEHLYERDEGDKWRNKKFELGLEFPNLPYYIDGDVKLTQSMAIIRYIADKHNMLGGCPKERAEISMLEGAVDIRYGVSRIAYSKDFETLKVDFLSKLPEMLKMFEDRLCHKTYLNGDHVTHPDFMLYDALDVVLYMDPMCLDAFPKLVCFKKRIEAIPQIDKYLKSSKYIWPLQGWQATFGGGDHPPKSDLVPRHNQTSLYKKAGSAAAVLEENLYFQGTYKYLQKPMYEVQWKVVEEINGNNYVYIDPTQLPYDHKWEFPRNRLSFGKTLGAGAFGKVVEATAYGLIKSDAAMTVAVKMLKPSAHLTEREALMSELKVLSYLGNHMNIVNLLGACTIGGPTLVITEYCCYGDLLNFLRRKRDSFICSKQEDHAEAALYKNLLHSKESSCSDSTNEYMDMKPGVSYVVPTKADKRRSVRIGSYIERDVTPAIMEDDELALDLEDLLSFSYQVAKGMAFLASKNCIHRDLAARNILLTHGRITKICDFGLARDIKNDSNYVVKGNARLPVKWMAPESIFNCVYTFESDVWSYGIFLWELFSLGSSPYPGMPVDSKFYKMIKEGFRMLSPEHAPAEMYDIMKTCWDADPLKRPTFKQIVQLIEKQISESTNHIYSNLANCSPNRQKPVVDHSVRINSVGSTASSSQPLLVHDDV
Sequence of unphosphorylated c-FMS kinase (uFMS, Seq. ID no. 1) (P07333 538-972): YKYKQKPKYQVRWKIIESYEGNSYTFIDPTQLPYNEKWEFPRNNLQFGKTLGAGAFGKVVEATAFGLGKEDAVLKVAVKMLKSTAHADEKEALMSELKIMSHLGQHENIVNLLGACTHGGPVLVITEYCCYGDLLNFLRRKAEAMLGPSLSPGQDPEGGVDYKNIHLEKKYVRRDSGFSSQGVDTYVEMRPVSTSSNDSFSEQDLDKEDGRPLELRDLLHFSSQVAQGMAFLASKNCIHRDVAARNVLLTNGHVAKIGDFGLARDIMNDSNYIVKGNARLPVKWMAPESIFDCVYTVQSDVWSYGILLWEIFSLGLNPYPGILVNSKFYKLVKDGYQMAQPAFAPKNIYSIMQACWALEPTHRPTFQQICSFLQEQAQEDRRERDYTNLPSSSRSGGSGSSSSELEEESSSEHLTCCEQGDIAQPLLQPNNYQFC
Sequence of cMET kinase (P08581 25-1390): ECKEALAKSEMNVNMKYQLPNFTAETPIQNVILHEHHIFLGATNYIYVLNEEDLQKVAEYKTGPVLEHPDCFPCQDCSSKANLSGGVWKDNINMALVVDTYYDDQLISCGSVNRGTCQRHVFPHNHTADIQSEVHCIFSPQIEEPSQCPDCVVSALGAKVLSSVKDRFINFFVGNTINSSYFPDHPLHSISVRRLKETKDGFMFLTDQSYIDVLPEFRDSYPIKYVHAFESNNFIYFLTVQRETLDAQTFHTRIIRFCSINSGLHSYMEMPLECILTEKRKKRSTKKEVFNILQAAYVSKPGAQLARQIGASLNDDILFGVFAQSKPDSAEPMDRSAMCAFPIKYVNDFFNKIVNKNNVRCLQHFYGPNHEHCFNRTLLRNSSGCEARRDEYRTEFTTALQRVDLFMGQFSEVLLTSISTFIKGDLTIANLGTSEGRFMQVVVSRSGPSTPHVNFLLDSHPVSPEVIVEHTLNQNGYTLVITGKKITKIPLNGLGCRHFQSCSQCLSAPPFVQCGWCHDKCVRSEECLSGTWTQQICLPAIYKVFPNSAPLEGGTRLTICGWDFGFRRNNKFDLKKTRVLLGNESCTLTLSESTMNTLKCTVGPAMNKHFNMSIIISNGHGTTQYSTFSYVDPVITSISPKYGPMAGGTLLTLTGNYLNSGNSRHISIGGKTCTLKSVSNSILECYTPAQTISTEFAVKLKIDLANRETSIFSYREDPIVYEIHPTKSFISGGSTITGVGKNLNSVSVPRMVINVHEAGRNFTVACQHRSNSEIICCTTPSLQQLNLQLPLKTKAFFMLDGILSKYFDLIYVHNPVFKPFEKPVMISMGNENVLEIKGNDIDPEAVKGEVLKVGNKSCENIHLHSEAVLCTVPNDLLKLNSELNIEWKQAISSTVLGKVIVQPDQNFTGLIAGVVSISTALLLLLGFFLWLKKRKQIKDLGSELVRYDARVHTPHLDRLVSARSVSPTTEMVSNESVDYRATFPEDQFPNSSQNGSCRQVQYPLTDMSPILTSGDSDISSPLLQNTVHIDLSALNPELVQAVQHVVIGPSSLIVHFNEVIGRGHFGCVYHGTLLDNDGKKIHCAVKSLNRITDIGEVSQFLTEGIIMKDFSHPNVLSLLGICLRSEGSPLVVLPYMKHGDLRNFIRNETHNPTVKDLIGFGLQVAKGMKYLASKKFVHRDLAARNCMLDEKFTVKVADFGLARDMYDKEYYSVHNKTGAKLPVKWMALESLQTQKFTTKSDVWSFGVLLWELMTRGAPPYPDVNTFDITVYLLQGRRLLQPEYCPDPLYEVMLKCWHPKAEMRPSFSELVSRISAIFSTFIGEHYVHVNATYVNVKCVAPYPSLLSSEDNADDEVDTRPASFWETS
Sequence of KDR kinase (P35968 20-1356): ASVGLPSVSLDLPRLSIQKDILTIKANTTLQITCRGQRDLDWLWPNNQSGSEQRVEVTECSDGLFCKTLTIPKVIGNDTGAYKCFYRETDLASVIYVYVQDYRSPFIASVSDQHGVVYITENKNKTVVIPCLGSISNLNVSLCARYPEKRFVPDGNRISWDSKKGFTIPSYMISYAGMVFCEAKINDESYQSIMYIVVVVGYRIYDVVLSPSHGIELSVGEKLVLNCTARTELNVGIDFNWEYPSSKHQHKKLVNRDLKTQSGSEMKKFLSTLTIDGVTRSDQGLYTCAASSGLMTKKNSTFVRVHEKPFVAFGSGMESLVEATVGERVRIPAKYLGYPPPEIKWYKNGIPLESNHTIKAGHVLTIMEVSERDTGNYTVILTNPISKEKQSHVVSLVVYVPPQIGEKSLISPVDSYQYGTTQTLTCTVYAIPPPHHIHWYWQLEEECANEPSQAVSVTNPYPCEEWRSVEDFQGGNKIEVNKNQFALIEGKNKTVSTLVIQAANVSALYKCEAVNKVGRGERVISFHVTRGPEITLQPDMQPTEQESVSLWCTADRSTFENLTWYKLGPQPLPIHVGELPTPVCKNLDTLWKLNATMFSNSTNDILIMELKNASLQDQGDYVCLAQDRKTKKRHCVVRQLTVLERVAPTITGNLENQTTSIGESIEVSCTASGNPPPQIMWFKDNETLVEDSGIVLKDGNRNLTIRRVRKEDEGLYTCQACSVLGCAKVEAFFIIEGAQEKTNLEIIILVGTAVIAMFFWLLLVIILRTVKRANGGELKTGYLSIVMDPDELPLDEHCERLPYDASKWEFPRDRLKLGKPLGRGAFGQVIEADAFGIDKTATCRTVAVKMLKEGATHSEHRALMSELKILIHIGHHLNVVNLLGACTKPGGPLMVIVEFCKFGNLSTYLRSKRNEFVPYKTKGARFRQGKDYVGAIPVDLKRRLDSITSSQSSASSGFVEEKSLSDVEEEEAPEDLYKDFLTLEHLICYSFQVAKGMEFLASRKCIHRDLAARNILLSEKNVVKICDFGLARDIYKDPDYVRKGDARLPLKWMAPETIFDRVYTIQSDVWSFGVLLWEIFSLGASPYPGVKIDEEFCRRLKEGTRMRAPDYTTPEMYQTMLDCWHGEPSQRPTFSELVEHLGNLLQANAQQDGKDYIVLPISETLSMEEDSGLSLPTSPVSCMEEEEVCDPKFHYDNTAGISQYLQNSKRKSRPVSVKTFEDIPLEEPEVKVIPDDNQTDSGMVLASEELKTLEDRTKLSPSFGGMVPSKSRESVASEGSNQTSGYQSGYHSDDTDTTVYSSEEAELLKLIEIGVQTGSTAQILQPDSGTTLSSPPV

On to `Cn1cc(-c2cc(Oc3ccc(NC(=O)N4CCN(C5CCOCC5)C4=O)nc3)ccn2)cn1` [Example 1, N-(5-((2-(1-methyl-1H-pyrazol-4-yl)pyridin-4-yl)oxy)pyridin-2-yl)-2-oxo-3-(tetrahydro-2H-pyran-4-yl)imidazolidine-1-carboxamide], for which the pIC50 in assay [1] (Table 4, read-out: c-FMS IC50) was 8.22; in assay [1] (setting [3]), above 8.00; in assay [2], 7.00 to 8.00; against cMET kinase, below 5.30; at KDR kinase it was below 5.48.
`Cn1cc(-c2cc(Oc3ccc(NC(=O)N4CCN(C5CCC(F)(F)CC5)C4=O)nc3)ccn2)cn1` [Example 25, 3-(4,4-difluorocyclohexyl)-N-(5-((2-(1-methyl-1H-pyrazol-4-yl)pyridin-4-yl)oxy)pyridin-2-yl)-2-oxoimidazolidine-1-carboxamide]: the pIC50 in assay [1] (setting [3]) and in assay [2] was above 8.00 throughout.
Take `Cc1nc(NC(=O)N2CCN(C3CCC(F)(F)CC3)C2=O)ccc1Oc1ccnc(-c2cnn(C)c2)c1` [Example 26, 3-(4,4-difluorocyclohexyl)-N-(6-methyl-5-((2-(1-methyl-1H-pyrazol-4-yl)pyridin-4-yl)oxy)pyridin-2-yl)-2-oxoimidazolidine-1-carboxamide]: the pIC50 in assay [1] (setting [3]) is above 8.00; in assay [2], 7.00 to 8.00.
With `Cc1nc(NC(=O)N2CCN(C3CCCC3)C2=O)ccc1Oc1ccnc(-c2cnn(C)c2)c1` [Example 29, 3-cyclopentyl-N-(6-methyl-5-((2-(1-methyl-1H-pyrazol-4-yl)pyridin-4-yl)oxy)pyridin-2-yl)-2-oxoimidazolidine-1-carboxamide], the pIC50 is 8.70 in assay [1] (Table 4, read-out: c-FMS IC50); above 8.00 in assay [1] (setting [3]); above 8.00 in assay [2]; 6.05 at cMET kinase; below 5.48 against KDR kinase.
Regarding `Cc1nc(NC(=O)N2CCN(C(C)(C)C)C2=O)ccc1Oc1ccnc(-c2cnn(C)c2)c1` [Example 33, 3-(tert-butyl)-N-(6-methyl-5-((2-(1-methyl-1H-pyrazol-4-yl)pyridin-4-yl)oxy)pyridin-2-yl)-2-oxoimidazolidine-1-carboxamide], the pIC50 in assay [1] (setting [3]) and in assay [2] was above 8.00 throughout.
With `Cn1cc(-c2cc(Oc3ccc(NC(=O)N4CCN(C(C)(C)C)C4=O)nc3)ccn2)cn1` [Example 34, 3-(tert-butyl)-N-(5-((2-(1-methyl-1H-pyrazol-4-yl)pyridin-4-yl)oxy)pyridin-2-yl)-2-oxoimidazolidine-1-carboxamide], the pIC50 in assay [1] (setting [3]) and in assay [2] was above 8.00 each time.
In the case of `Cc1nc(NC(=O)N2CCN(C(C)C)C2=O)ccc1Oc1ccnc(-c2cnn(C)c2)c1` [Example 35, 3-isopropyl-N-(6-methyl-5-((2-(1-methyl-1H-pyrazol-4-yl)pyridin-4-yl)oxy)pyridin-2-yl)-2-oxoimidazolidine-1-carboxamide], the values for the pIC50 in assay [1] (setting [3]) and in assay [2] were above 8.00 and 6.00 to 7.00, respectively.
`CC(C)N1CCN(C(=O)Nc2ccc(Oc3ccnc(-c4cnn(C)c4)c3)cn2)C1=O` [Example 36, 3-isopropyl-N-(5-((2-(1-methyl-1H-pyrazol-4-yl)pyridin-4-yl)oxy)pyridin-2-yl)-2-oxoimidazolidine-1-carboxamide]: the pIC50 in assay [1] (setting [3]) was above 8.00; in assay [2], 7.00 to 8.00.
On the same counts, the results for `[2H]C([2H])([2H])n1cc(-c2cc(Oc3ccc(NC(=O)N4CCN(CCOC)C4=O)nc3C)ccn2)cn1` [Example 39, 3-(2-methoxyethyl)-N-(6-methyl-5-((2-(1-(trideuteromethyl)-1H-pyrazol-4-yl)pyridin-4-yl)oxy)pyridin-2-yl)-2-oxoimidazolidine-1-carboxamide] are 7.00 to 8.00 and 6.00 to 7.00.
Consider `Cc1nc(NC(=O)N2CCN(CC(F)(F)F)C2=O)ccc1Oc1ccnc(-c2cnn(C)c2)c1` [Example 43, N-(6-methyl-5-((2-(1-methyl-1H-pyrazol-4-yl)pyridin-4-yl)oxy)pyridin-2-yl)-2-oxo-3-(2,2,2-trifluoroethyl)imidazolidine-1-carboxamide], for which the results for the pIC50 in assay [1] (setting [3]) and in assay [2] were above 8.00 and 6.00 to 7.00, respectively.
Consider `CCc1nc(NC(=O)N2CCN(C3CCOCC3)C2=O)ccc1Oc1ccnc(-c2cnn(C)c2)c1` [Example 49, N-(6-ethyl-5-((2-(1-methyl-1H-pyrazol-4-yl)pyridin-4-yl)oxy)pyridin-2-yl)-2-oxo-3-(tetrahydro-2H-pyran-4-yl)imidazolidine-1-carboxamide], for which the pIC50 was 7.00 to 8.00 in assay [1] (setting [3]) and below 6.00 in assay [2].
As to `Cc1ccc(-c2cc(Oc3ccc(NC(=O)N4CCN(C5CCOCC5)C4=O)nc3)ccn2)cn1` [Example 52, N-(5-((6′-methyl-[2,3′-bipyridin]-4-yl)oxy)pyridin-2-yl)-2-oxo-3-(tetrahydro-2H-pyran-4-yl)imidazolidine-1-carboxamide], the pIC50 in assay [1] (setting [3]) and in assay [2] was 7.00 to 8.00 in each case.
On to `Cc1ccc(-c2cc(Oc3ccc(NC(=O)N4CCN(C5CCOCC5)C4=O)nc3C)ccn2)cn1` [Example 54, N-(6-methyl-5-((6′-methyl-[2,3′-bipyridin]-4-yl)oxy)pyridin-2-yl)-2-oxo-3-(tetrahydro-2H-pyran-4-yl)imidazolidine-1-carboxamide], for which the figures for the pIC50 in assay [1] (setting [3]) and in assay [2] were 7.00 to 8.00 and 6.00 to 7.00, respectively.
Take `CCc1nc(NC(=O)N2CCN(CC(F)(F)F)C2=O)ccc1Oc1ccnc(-c2cnn(C)c2)c1` [Example 56, N-(6-ethyl-5-((2-(1-methyl-1H-pyrazol-4-yl)pyridin-4-yl)oxy)pyridin-2-yl)-2-oxo-3-(2,2,2-trifluoroethyl)imidazolidine-1-carboxamide]: the pIC50 was 7.00 to 8.00 in assay [1] (setting [3]) and below 6.00 in assay [2].
In the case of `CCc1nc(NC(=O)N2CCN(C3CCCC3)C2=O)ccc1Oc1ccnc(-c2cnn(C)c2)c1` [Example 57, 3-cyclopentyl-N-(6-ethyl-5-((2-(1-methyl-1H-pyrazol-4-yl)pyridin-4-yl)oxy)pyridin-2-yl)-2-oxoimidazolidine-1-carboxamide], the pIC50 in assay [1] (setting [3]) was above 8.00; in assay [2], below 6.00.
As to `CCc1nc(NC(=O)N2CCN(C3CC3)C2=O)ccc1Oc1ccnc(-c2cnn(C)c2)c1` [Example 58, 3-cyclopropyl-N-(6-ethyl-5-((2-(1-methyl-1H-pyrazol-4-yl)pyridin-4-yl)oxy)pyridin-2-yl)-2-oxoimidazolidine-1-carboxamide], the pIC50 in assay [1] (setting [3]) was 7.00 to 8.00; in assay [2] it was below 6.00.
Turning to `CCN1CCN(C(=O)Nc2ccc(Oc3ccnc(-c4ccc(C5CCN(C)CC5)cc4)c3)c(C)n2)C1=O` [Example 61, 3-ethyl-N-(6-methyl-5-((2-(4-(1-methylpiperidin-4-yl)phenyl)pyridin-4-yl)oxy)pyridin-2-yl)-2-oxoimidazolidine-1-carboxamide], the pIC50 in assay [1] (setting [3]) is above 8.00; in assay [2], 6.00 to 7.00.
For `Cc1cc(NC(=O)N2CCN(C)C2=O)ncc1Oc1ccnc(-c2cnn(C)c2)c1` [Example 85, 3-methyl-N-(4-methyl-5-((2-(1-methyl-1H-pyrazol-4-yl)pyridin-4-yl)oxy)pyridin-2-yl)-2-oxoimidazolidine-1-carboxamide], the figures for the pIC50 in assay [1] (setting [3]) and in assay [2] were above 8.00 and 7.00 to 8.00, respectively.
In the same order, the values of `CCN1CCN(C(=O)Nc2cc(C)c(Oc3ccnc(-n4cnc(C)c4)c3)cn2)C1=O` [Example 88, 3-ethyl-N-(4-methyl-5-((2-(4-methyl-1H-imidazol-1-yl)pyridin-4-yl)oxy)pyridin-2-yl)-2-oxoimidazolidine-1-carboxamide] are 7.00 to 8.00 and 6.00 to 7.00.
As to `CCN1CCN(C(=O)Nc2ccc(Oc3ccnc(-c4cnc(C)o4)c3)cn2)C1=O` [Example 117, 3-ethyl-N-(5-((2-(2-methyloxazol-5-yl)pyridin-4-yl)oxy)pyridin-2-yl)-2-oxoimidazolidine-1-carboxamide], the pIC50 in assay [1] (setting [3]) and in assay [2] was 6.00 to 7.00 in each case.
On to `CC(=O)Nc1cc(Oc2ccc(NC(=O)N3CCN(C4CCOCC4)C3=O)nc2)ccn1` [Example 119, N-(5-((2-acetamidopyridin-4-yl)oxy)pyridin-2-yl)-2-oxo-3-(tetrahydro-2H-pyran-4-yl)imidazolidine-1-carboxamide], for which the values for the pIC50 in assay [1] (setting [3]) and in assay [2] were 7.00 to 8.00 and 6.00 to 7.00, respectively.
As to `CN(C)C(=O)Nc1cc(Oc2ccc(NC(=O)N3CCN(C4CCOCC4)C3=O)nc2)ccn1` [Example 120, N-(5-((2-(3,3-dimethylureido)pyridin-4-yl)oxy)pyridin-2-yl)-2-oxo-3-(tetrahydro-2H-pyran-4-yl)imidazolidine-1-carboxamide], the pIC50 in assay [1] (setting [3]) was above 8.00; in assay [2] it was 7.00 to 8.00.
